Patent US20220274947A1, “NOVEL HETEROARYL-TRIAZOLE COMPOUNDS AS PESTICIDES” (Bayer Aktiengesellschaft, priority 2019, published 2022)

Key:
Type in all cases: in vivo
[1] = system: Musca domestica strain WHO—N; assay: Musca domestica test (MUSCDO surface treatment & contact assay); conditions: surface concentration 20 mg/m^2, glazed tile, exposure 30 minutes, 24 hours after contact, read-out: efficacy (mortality)
Summary of the method: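 Compound dissolved in acetone (2 mg/ml) with 2000 ppm rapeseed oil methyl ester and pipetted onto glazed tile; after acetone evaporation, adult flies exposed to dried surface for 30 minutes. Mortality (%) scored 24 hours after contact.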

Rhipicephalus microplus [2] = assay: Rhipicephalus (Boophilus) microplus in-vitro contact test, larval cattle tick, strain Parkhurst (BOOPMI Cont); conditions: application rate 5 μg/cm^2 (=500 g/ha), tick larvae, after 48 hours, read-out: activity (efficacy: 100% means all larvae are dead or moribund)
Summary of the method: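 After 48 h at 27° C. and 85% humidity, percent dead or moribund larvae was scored from negative geotactic behaviour. Larvae (20-50, Parkhurst strain, synthetic pyrethroid-resistant) were exposed in tubes coated with compound from acetone, 900 ppm corresponding to 5 μg/cm^2.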

Spodoptera frugiperda = Spodoptera frugiperda spray test; conditions: in Zea mays, 168 h, read-out: activity (mortality)
Summary of the method: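 Percent kill of fall armyworm caterpillars was assessed 7 days after infesting dried, treated maize leaf sections. Treatment was a spray of compound in acetone/dimethylformamide, diluted with water containing emulsifier at 1000 ppm.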

Nezara viridula = Nezara viridula spray test; conditions: in Hordeum vulgare, 96 h, barley plants, larvae, after 4 days; for mortality at 500 g/ha: application rate 500 g/ha
Experimental: Nezara viridula—Spray Test Solvent: 78.0 parts by weight of acetone • • 1.5 parts by weight of dimethylformamide Emulsifier: alkylarylpolyglycol ether
To produce a suitable preparation of active compound, 1 part by weight of active compound is mixed with the stated amount of solvent, and the concentrate is diluted with water, containing an emulsifier concentration of 1000 ppm, to the desired concentration. Further test concentrations are prepared by dilution with emulsifier containing water.
Barley plants (Hordeum vulgare) infested with larvae of the southern green stink bug (Nezara viridula) are sprayed with a test solution containing the desired concentration of the active ingredient.
After 4 days mortality in % is determined. 100% means all the stink bugs have been killed; 0% means none of the stink bugs have been killed.

Diabrotica balteata = Diabrotica balteata spray test; conditions: 168 h, wheat seeds, larvae, after 7 days, read-out: activity (efficacy: 100% means all seedlings have grown up like in the untreated, uninfected control); for pest or weed control at 32 µg/disc, 100 g/ha: application rate 100 g/ha (=32 μg/well); for pest or weed control at 160 µg/disc, 500 g/ha: application rate 500 g/ha (=160 μg/well)
Summary of the method: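 Efficacy (%) was scored 7 days after spraying, with 100% meaning growth like the untreated, uninfected control and 0% meaning no seedling grew. Spray solutions of compound in acetone/DMF with emulsifier-containing water went onto 1-day-germinated wheat seeds, and each unit was then infested with 10-20 banded cucumber beetle larvae.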

Rhipicephalus microplus [3] = assay: Rhipicephalus (Boophilus) microplus injection test (BOOPMI Inj); conditions: 168 h, injection into adult engorged female ticks, egg deposition after 7 days, read-out: activity (efficacy: 100% means all eggs are infertile); for pest or weed control at 0.004 mg: application rate 4 μg/tick; for pest or weed control at 0.02 mg: application rate 20 μg/tick
Summary of the method: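 Compound in DMSO, 1 μL, injected abdominally into five adult engorged females, which were then held in a climate chamber. Read-out is egg fertility, scored from deposition at 7 days, with unclear eggs followed to hatching (~42 days); 0% means all eggs fertile, 100% all infertile.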

Myzus persicae = Myzus persicae oral test; conditions: 120 h, read-out: activity (mortality)
Summary of the method: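 Percent mortality was recorded at day 5, where 0% means no aphids killed. Compound prepared from an acetone concentrate diluted in water and combined with IPL41 medium containing sugar was offered to mixed-stage green peach aphids, which sucked it through a parafilm seal.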

Rhipicephalus sanguineus = Rhipicephalus sanguineus in-vitro contact test, adult brown dog ticks (RHIPSA Cont); conditions: 48 h, after 48 hours, read-out: activity (efficacy: 100% means all ticks are dead or moribund); for pest or weed control at 5 µg/cm2, 500 g/ha: application rate 5 μg/cm^2 (=500 g/ha); for pest or weed control at 1 µg/cm2, 100 g/ha: application rate 1 μg/cm^2 (=100 g/ha)
Summary of the method: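 Mortality of adult R. sanguineus was judged 48 h after contact with acetone-applied residues on glass tube walls. Ticks that stayed immotile or moved without coordination when heated to 45–50 °C (max 5 min) counted as dead or moribund.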

[4] = system: Aedes aegypti strain MONHEIM; assay: Aedes aegypti test (AEDSAE surface treatment & contact assay); conditions: surface concentration 4 mg/m^2, glazed tile, exposure 30 minutes, 24 hours after contact, read-out: efficacy (mortality)
Summary of the method: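 Compound dissolved in acetone (2 mg/ml) with 2000 ppm rapeseed oil methyl ester, pipetted onto glazed tile and dried. Adult mosquitoes exposed on the surface for 30 min; percent mortality scored 24 h after contact.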

Ctenocephalides felis [5] = assay: Ctenocephalides felis in-vitro contact test, adult cat flea (CTECFE Cont); conditions: application rate 5 μg/cm^2 (=500 g/ha), adult cat fleas, after 48 hours, read-out: activity (efficacy: 100% means all fleas are dead or moribund)
Experimental: Ctenocephalides felis—In-Vitro Contact Tests Adult Cat Flea (CTECFE Cont)
9 mg compound is solved in 1 mL acetone and diluted with acetone to the desired concentration. 250 μL of the test solution is filled in 25 mL glass test tubes and homogeneously distributed on the inner walls by rotation and tilting on a shaking device (2 h at 30 rpm). With a compound concentration of 900 ppm, an inner surface of 44.7 cm^2 and a homogeneous distribution, a dose of 5 μg/cm^2 is achieved.
After the solvent has evaporated, each test tube is filled with 5-10 adult cat fleas (Ctenocephalides felis), closed with a perforated lid and incubated in a lying position at room temperature and relative humidity. After 48 hours efficacy is determined. The fleas are patted on the ground of the tubes and are incubated on a heating plate at 45-50° C. for at most 5 minutes. Immotile or uncoordinated moving fleas, which are not able to escape the heat by climbing upwards, are marked as dead or moribund.
An efficacy of 100% means all fleas are dead or moribund; 0% means no fleas are dead or moribund.

Ctenocephalides felis [6] = assay: Ctenocephalides felis oral test (CTECFE Oral); conditions: 48 h, read-out: activity (mortality)
Summary of the method: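 Percent mortality was recorded 2 days after roughly 20 adult Ctenocephalides felis fed on treated cattle blood. The blood was warmed to 37 °C beneath a parafilm membrane, with the fleas kept at room temperature. Compound was dissolved in DMSO and diluted into the blood to test concentration.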

C[C@H](NC(=O)c1cc(C(F)(F)F)cc(C(F)(F)F)c1)c1nc(C2CC2)nn1-c1ccc(C#N)cn1 [I-4]
80 to 100%: mortality at 20 mg/m2 [1]
90%: mortality at 500 g/ha (Nezara viridula)
100%: pest or weed control at 5 µg/cm2 (Rhipicephalus microplus [2]) | mortality at 100 g/ha (Spodoptera frugiperda) | mortality at 500 g/ha (Spodoptera frugiperda) | pest or weed control at 32 µg/disc, 100 g/ha (Diabrotica balteata) | pest or weed control at 160 µg/disc, 500 g/ha (Diabrotica balteata) | pest or weed control at 0.004 mg (Rhipicephalus microplus [3]) | pest or weed control at 0.02 mg (Rhipicephalus microplus [3])

C[C@H](NC(=O)c1cc(Cl)cc(C(F)(F)F)c1)c1nc(C2CC2)nn1-c1ccc(C#N)cn1 [I-6, 3-chloro-N-{(1S)-1-[1-(5-cyanopyridin-2-yl)-3-cyclopropyl-1H-1,2,4-triazol-5-yl]ethyl}-5-(trifluoromethyl)benzamide]
80 to 100%: mortality at 20 mg/m2 [1]
100%: pest or weed control at 5 µg/cm2 (Rhipicephalus microplus [2]) | mortality at 100 g/ha (Spodoptera frugiperda) | mortality at 500 g/ha (Spodoptera frugiperda) | mortality at 500 g/ha (Nezara viridula) | pest or weed control at 32 µg/disc, 100 g/ha (Diabrotica balteata) | pest or weed control at 160 µg/disc, 500 g/ha (Diabrotica balteata) | pest or weed control at 0.004 mg (Rhipicephalus microplus [3]) | pest or weed control at 0.02 mg (Rhipicephalus microplus [3])

COc1nc([C@H](C)NC(=O)c2cc(Cl)cc(Cl)c2)n(-c2ccc(C#N)cn2)n1 [I-15]
80%: pest or weed control at 5 µg/cm2, 500 g/ha (Rhipicephalus sanguineus) | pest or weed control at 5 µg/cm2 (Ctenocephalides felis [5])
100%: mortality at 4 ppm (Myzus persicae) | pest or weed control at 5 µg/cm2 (Rhipicephalus microplus [2]) | mortality at 100 g/ha (Spodoptera frugiperda) | mortality at 500 g/ha (Spodoptera frugiperda) | mortality at 100 ppm (Ctenocephalides felis [6]) | pest or weed control at 32 µg/disc, 100 g/ha (Diabrotica balteata) | pest or weed control at 160 µg/disc, 500 g/ha (Diabrotica balteata) | pest or weed control at 0.004 mg (Rhipicephalus microplus [3]) | pest or weed control at 0.02 mg (Rhipicephalus microplus [3])
80 to 100%: mortality at 4 mg/m2 [4]

C[C@H](NC(=O)c1cc(Cl)cc(C(F)(F)F)c1)c1nc(C(C)(C)C)nn1-c1ccc(C#N)cn1 [I-38]
80 to 100%: mortality at 20 mg/m2 [1]
83%: mortality at 100 g/ha (Spodoptera frugiperda)
100%: pest or weed control at 1 µg/cm2, 100 g/ha (Rhipicephalus sanguineus) | pest or weed control at 5 µg/cm2 (Rhipicephalus microplus [2]) | mortality at 100 g/ha (Nezara viridula; application rate 100 g/ha) | pest or weed control at 32 µg/disc, 100 g/ha (Diabrotica balteata) | pest or weed control at 0.004 mg (Rhipicephalus microplus [3]) | pest or weed control at 0.02 mg (Rhipicephalus microplus [3])
80%: pest or weed control at 5 µg/cm2, 500 g/ha (Rhipicephalus sanguineus)

C[C@H](NC(=O)c1cc(Cl)cc(C(F)(F)F)c1)c1ncnn1-c1ccc(C(=O)N(C)CC(F)(F)F)cn1 [II-69]
83%: mortality at 100 g/ha (Spodoptera frugiperda)
100%: mortality at 4 ppm (Myzus persicae) | pest or weed control at 1 µg/cm2, 100 g/ha (Rhipicephalus sanguineus) | pest or weed control at 5 µg/cm2, 500 g/ha (Rhipicephalus sanguineus) | pest or weed control at 5 µg/cm2 (Rhipicephalus microplus [2]) | mortality at 500 g/ha (Spodoptera frugiperda) | mortality at 100 ppm (Ctenocephalides felis [6]) | pest or weed control at 0.004 mg (Rhipicephalus microplus [3]) | pest or weed control at 0.02 mg (Rhipicephalus microplus [3])
90%: pest or weed control at 5 µg/cm2 (Ctenocephalides felis [5])
80%: pest or weed control at 32 µg/disc, 100 g/ha (Diabrotica balteata)

Cc1nc([C@H](C)NC(=O)c2cc(Cl)cc(C(F)(F)C(F)(F)F)c2)n(-c2ccc(C#N)cn2)n1 [II-75]
90%: pest or weed control at 5 µg/cm2 (Ctenocephalides felis [5])
100%: mortality at 4 ppm (Myzus persicae) | pest or weed control at 1 µg/cm2, 100 g/ha (Rhipicephalus sanguineus) | pest or weed control at 5 µg/cm2, 500 g/ha (Rhipicephalus sanguineus) | pest or weed control at 5 µg/cm2 (Rhipicephalus microplus [2]) | mortality at 100 g/ha (Spodoptera frugiperda) | mortality at 100 ppm (Ctenocephalides felis [6]) | pest or weed control at 32 µg/disc, 100 g/ha (Diabrotica balteata) | pest or weed control at 0.004 mg (Rhipicephalus microplus [3]) | pest or weed control at 0.02 mg (Rhipicephalus microplus [3])

C[C@H](NC(=O)c1cc(C(F)(F)F)cc(C(F)(F)F)c1)c1ncnn1-c1cc(C(=O)N(C)C)ccn1 [II-86]
80%: pest or weed control at 5 µg/cm2, 500 g/ha (Rhipicephalus sanguineus)
100%: mortality at 0.8 ppm (Myzus persicae) | mortality at 4 ppm (Myzus persicae) | pest or weed control at 1 µg/cm2, 100 g/ha (Rhipicephalus sanguineus) | pest or weed control at 5 µg/cm2 (Ctenocephalides felis [5]) | pest or weed control at 5 µg/cm2 (Rhipicephalus microplus [2]) | mortality at 100 g/ha (Spodoptera frugiperda) | mortality at 100 ppm (Ctenocephalides felis [6]) | pest or weed control at 32 µg/disc, 100 g/ha (Diabrotica balteata)

C[C@H](NC(=O)c1cc(Br)cc(OC(F)(F)F)c1)c1ncnn1-c1cc(C#N)ccn1 [II-107]
100%: mortality at 4 ppm (Myzus persicae) | pest or weed control at 1 µg/cm2, 100 g/ha (Rhipicephalus sanguineus) | pest or weed control at 5 µg/cm2, 500 g/ha (Rhipicephalus sanguineus) | pest or weed control at 5 µg/cm2 (Ctenocephalides felis [5]) | pest or weed control at 5 µg/cm2 (Rhipicephalus microplus [2]) | mortality at 100 g/ha (Spodoptera frugiperda) | mortality at 100 ppm (Ctenocephalides felis [6]) | pest or weed control at 32 µg/disc, 100 g/ha (Diabrotica balteata) | pest or weed control at 0.004 mg (Rhipicephalus microplus [3])
